# Experimental data published in PubChem BioAssay (NCI).
#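 Briefly, cells in 96-well plates were exposed to five compound concentrations for 48 h, and endpoints were estimated by linear interpolation. GI50 is the concentration that inhibits growth by half. TGI: total growth inhibition.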
# Assays:
# Assay in all cases: NCI tumour cell line growth inhibition, 48 h
# HT29 colon = tested on: HT29 colon
# CCRF-CEM leukemia = tested on: CCRF-CEM leukemia
# A498 renal = tested on: A498 renal
# SNB-75 CNS = tested on: SNB-75 CNS
# HCC-2998 colon = tested on: HCC-2998 colon
# RXF 393 renal = tested on: RXF 393 renal
# OVCAR-4 ovarian = tested on: OVCAR-4 ovarian
# MALME-3M melanoma = tested on: MALME-3M melanoma
# MOLT-4 leukemia = tested on: MOLT-4 leukemia
# A549 NSCLC = tested on: A549 NSCLC
SMILES,GI50 (HT29 colon) [µM],TGI (HT29 colon) [µM],GI50 (CCRF-CEM leukemia) [µM],TGI (CCRF-CEM leukemia) [µM],GI50 (A498 renal) [µM],TGI (A498 renal) [µM],GI50 (SNB-75 CNS) [µM],TGI (SNB-75 CNS) [µM],GI50 (HCC-2998 colon) [µM],TGI (HCC-2998 colon) [µM],GI50 (RXF 393 renal) [µM],TGI (RXF 393 renal) [µM],GI50 (OVCAR-4 ovarian) [µM],TGI (OVCAR-4 ovarian) [µM],GI50 (MALME-3M melanoma) [µM],TGI (MALME-3M melanoma) [µM],GI50 (MOLT-4 leukemia) [µM],TGI (MOLT-4 leukemia) [µM],GI50 (A549 NSCLC) [µM],TGI (A549 NSCLC) [µM]
COc1cccc2c(=O)c3c(sc12)c(NCCCN)nc1ccccc13,1.41,2.99,1.91,4.86,1.68,3.15,1.64,3.2,1.72,3.26,1.53,2.96,1.73,3.64,1.58,2.99,–,–,–,–
Cn1nnnc1[N-]Cc1ccccc1.[Au+].c1ccc([PH+](c2ccccc2)c2ccccc2)cc1,5.02,13.3,0.752,3.95,–,–,7.92,20.5,8.55,21.8,1.29,2.68,1.99,5.42,1.64,3.39,1.67,4.75,21.2,71.3
Cc1ccc(S(=O)(=O)ON/N=C2/C3OC3[C@@H]3CCCC[C@H]23)cc1 (some centres not stated),–,> 100,–,> 100,–,–,–,> 100,–,> 100,–,> 100,–,> 100,–,> 100,–,> 100,–,> 100
O=C(O)c1[nH]c(C(=O)O)c(CC(F)(F)C(F)(F)C(F)(F)F)c1CC(F)(F)C(F)(F)C(F)(F)F,–,> 100,–,> 100,–,> 100,–,> 100,–,> 100,–,> 100,–,> 100,–,> 100,–,–,–,> 100
C=C1C(O)C2C(=C(CC(C)C)C13CC3)C(=O)C(C)(C)C2OC (configuration not stated),> 100,> 100,86.6,> 100,> 100,> 100,–,–,–,–,> 100,> 100,> 100,> 100,> 100,> 100,24.2,66.8,> 100,> 100
O=C(Nc1ccc(Br)cc1)c1cc(Br)cc(Br)c1O,4.02,22.7,3.73,> 100,1.82,4.37,2.16,7.11,3.35,10.1,–,–,3.33,> 100,2.15,5.63,3.83,> 100,2.65,7.9
CN(C)CN1C(=O)S/C(=C2\C(=O)N(CN(C)C)c3ccccc32)C1=O,–,> 100,–,–,–,> 100,–,74.5,–,> 100,–,75,–,> 100,–,–,–,1.93,–,> 100
Cc1ccc(C)c(NC(=O)/C(=N\NC(N)=S)C(C#N)c2ccccc2)c1 (configuration not stated),–,> 100,–,> 100,–,> 100,–,> 100,–,> 100,–,–,–,> 100,–,> 100,–,> 100,–,> 100
N#C/C(=C(\O)C(=O)O)c1ccc(-c2cccc3ccccc23)cc1,–,> 100,–,> 100,–,> 100,–,> 100,–,–,–,> 100,–,> 100,–,> 100,–,12.2,–,> 100
O=C1OCC2=Nc3cccc4cccc(c34)N12,–,> 100,–,> 100,–,–,–,> 100,–,> 100,–,> 100,–,> 100,–,–,–,> 100,–,> 100
COc1ccc(/C=[N+](\[O-])[C@H](COCc2ccccc2)c2ccccc2)cc1,–,> 100,–,> 100,–,> 100,–,> 100,–,> 100,–,> 100,–,–,–,> 100,–,> 100,–,–
C=C1C(=O)O[C@H]2[C@H]1CC/C(COC(=O)c1ccc(C(=O)O)s1)=C\CC[C@@]1(C)O[C@@H]21,1.56,3.5,1.63,8.66,7.5,20.3,–,–,3.47,11.5,1.97,3.92,3.18,10.5,2.44,4.25,2.38,7.2,5.35,18.4
[Cl][Sn]([c]1ccccc1)[c]1ccccc1,9.99,24.2,1.85,5.85,–,–,6.18,19.4,14.1,27.8,1.55,3.24,15.2,29.8,2.19,4.66,2.91,28.9,17.5,36.2
O=C(O)C(Cc1ccc(O)c([N+](=O)[O-])c1)N1C(=O)c2ccccc2C1=O (configuration not stated),–,> 100,–,> 100,–,> 100,–,> 100,–,–,–,> 100,–,> 100,–,> 100,–,> 100,–,> 100
O=C(N/N=C/c1ccc(F)cc1)c1[nH]c2ccc(I)cc2c1-c1ccccc1,0.35,10,0.383,–,0.409,–,0.327,39.3,0.888,12.5,–,–,0.702,> 87.4,–,–,1.24,> 36.9,0.76,> 54.5
Nc1ncnc2c1ncn2C1OC(C(=O)O)C(O)C1O (configuration not stated),–,> 100,–,> 100,–,> 100,–,> 100,–,–,–,> 100,–,> 100,–,> 100,–,> 100,–,> 100
OC1CCC(C2C3CCCCC3C3CCCCC3C2C2CCC(O)CC2)CC1 (configuration not stated),–,3.96,–,–,–,32.2,–,21.6,–,–,–,7.06,–,16,–,41.7,–,> 100,–,> 100
COc1cc2ccc3c4cc(OC)c(OCc5ccccc5)cc4cnc3c2cc1OC,–,> 100,–,> 100,–,> 100,–,> 100,–,> 100,–,–,–,> 100,–,> 100,–,> 100,–,> 100
c1cncc(C2c3[nH]c4ccccc4c3CCN2CCN2CCCCC2)c1 (configuration not stated),–,> 100,–,> 100,–,> 100,–,> 100,–,> 100,–,–,–,> 100,–,–,–,> 100,–,> 100

SMILES,GI50 (HT29 colon) [µM],TGI (HT29 colon) [µM],GI50 (CCRF-CEM leukemia) [µM],TGI (CCRF-CEM leukemia) [µM],GI50 (A498 renal) [µM],TGI (A498 renal) [µM],GI50 (SNB-75 CNS) [µM],TGI (SNB-75 CNS) [µM],GI50 (HCC-2998 colon) [µM],TGI (HCC-2998 colon) [µM],GI50 (RXF 393 renal) [µM],TGI (RXF 393 renal) [µM],GI50 (OVCAR-4 ovarian) [µM],TGI (OVCAR-4 ovarian) [µM],GI50 (MALME-3M melanoma) [µM],TGI (MALME-3M melanoma) [µM],GI50 (MOLT-4 leukemia) [µM],TGI (MOLT-4 leukemia) [µM],GI50 (A549 NSCLC) [µM],TGI (A549 NSCLC) [µM]
O=c1c(OC/C(=N/O)c2ccccc2)c(-c2ccccc2)oc2ccccc12,13.7,34.3,0.461,6.47,–,–,16.8,> 50,9.64,17.5,20.8,> 50,38.6,> 50,–,–,12.6,> 50,30.3,> 50
C=CCN(N=O)C(=O)N(CCC)CCCC(NC(C)=O)C(=O)NCc1ccccc1 (configuration not stated),–,> 100,–,> 100,–,> 100,–,> 100,–,–,–,> 100,–,> 100,–,> 100,–,> 100,–,> 100
COC(=O)/C(=N/NC(C)(C)C)C(C(=O)C=C(C)C)C(=O)C(=O)Nc1ccc(Cl)cc1C (configuration not stated),–,> 100,–,> 100,–,> 100,–,–,–,> 100,–,–,–,> 100,–,> 100,–,> 100,–,> 100
CN(C)CCNC(=O)c1cccc(CO)c1[N+](=O)[O-],–,> 100,–,> 100,–,> 100,–,> 100,–,> 100,–,–,–,–,–,> 100,–,> 100,–,> 100
CC(C)(C)C([O-])=C1C(=O)c2ccccc2C1=O.CC(C)(C)C([O-])=C1C(=O)c2ccccc2C1=O.CC[O-].CC[O-].[Ti+4],32.9,> 100,38.8,> 100,–,–,42.3,> 100,40.3,> 100,10.8,90.3,58.7,> 100,17.3,38.5,22.4,61.9,36.2,> 100
CC(C)(C)N=CN1CCC(C(c2ccccc2)c2ccccc2)CC1,–,56.5,–,–,–,> 100,–,> 100,–,–,–,98.7,–,> 100,–,35.6,–,–,–,> 100
NC(N)=N/N=C/c1c(-c2cc(Cl)sc2Cl)nc2n1CCS2,–,–,8.67,19.6,8.9,16.6,–,–,5.11,12.6,10.8,22.4,–,–,–,–,10.4,26.8,9.57,22
OCCCNCc1ccccn1,–,> 100,–,> 100,–,> 100,–,> 100,–,–,–,> 100,–,> 100,–,> 100,–,> 100,–,> 100
ClCCn1cnc2c(SCc3ccccc3)ncnc21,0.872,> 100,0.889,> 100,3.23,74.6,0.777,> 100,–,–,11.4,63.5,19.8,> 100,25.7,> 100,0.823,> 100,1.22,76.5
CC1=CC[C@@H]2C(C)(C)[C@@H](O)CC[C@@]2(C)[C@@H]1COc1ccc2ccc(=O)oc2c1,9.83,44.6,3.39,19.9,0.905,19.9,–,–,12.7,27.4,13.2,35.3,3.66,12.7,8.04,22.4,3.14,15.7,5.68,22.8
CCOC(=O)C(=O)Nc1c(C)cccc1CC,–,> 100,–,> 100,–,–,–,–,–,> 100,–,> 100,–,> 100,–,> 100,–,> 100,–,> 100
N#CC1C(N)=NNC1c1ccc(-c2ccc(-c3nc4ccccc4o3)cc2)o1 (configuration not stated),–,–,–,–,–,–,> 100,> 100,–,–,–,–,90.8,> 100,–,–,> 100,> 100,32.3,> 100
Cc1ccc(S(=O)(=O)NCCN2c3nc4ccccc4cc3Sc3cc4ccccc4nc32)cc1,> 100,> 100,> 100,> 100,24.4,> 84.9,1.54,7.84,> 100,> 100,22.1,66.3,–,–,23.2,> 100,> 100,> 100,> 100,> 100
COc1ccc2c(C3(O)CCNCC3)c[nH]c2c1,–,> 100,–,> 100,–,–,–,> 100,–,> 100,–,> 100,–,> 100,–,> 100,–,> 100,–,> 100
COC(=O)C12C3C4C1C1C2C3C41I (configuration not stated),–,> 100,–,> 100,–,> 100,–,–,–,> 100,–,> 100,–,> 100,–,> 100,–,> 100,–,> 100
Cc1cc2occ(C)c(=O)c2c2c1OC(C)(C)S2,–,> 100,–,> 100,–,–,–,> 100,–,> 100,–,> 100,–,> 100,–,> 100,–,> 100,–,> 100
O=S(=O)(O)c1ccc2cc(N=Nc3cc(S(=O)(=O)O)c4cccnc4c3O)ccc2c1,–,> 100,–,> 100,–,> 100,–,> 100,–,–,–,> 100,–,> 100,–,> 100,–,> 100,–,> 100
c1ccc(COc2ccc3[nH]c4c(ncc5[nH]c6ccccc6c54)c3c2)cc1,–,17.8,–,40.7,–,41.6,–,25.5,–,23.6,–,23.3,–,–,–,18.2,–,31.6,–,34.9
c1cc(-c2sc(-c3ccncc3)c(-c3ccncc3)c2-c2ccncc2)ccn1,–,27.7,–,–,–,26.7,–,40.9,–,19.6,–,33.4,–,> 100,–,32.5,–,> 100,–,45.8
